Laboratory results: patent publication US7012077B2, “Substituted cyclohexane derivatives” (Hoffmann-La Roche Inc., priority 2001, dated 2006)

**Q.** With `CN(C)CC#C[C@H]1CC[C@H](N(C)c2ncc(Br)cn2)CC1` [Example 2, trans-(5-Bromo-pyrimidin-2-yl)-[4-(3-dimethylamino-prop-1-ynyl)-cyclohexyl]-methyl-amine] as the compound, how does the melting point read?
**A.** 83 to 84 °C (dec.)

**Q.** Which melting point does the source give for `CN(C)C[C@H]1CC[C@H](CCNc2ncc(Br)cn2)CC1` [Example 12, trans-(5-Bromo-pyrimidin-2-yl)-[2-(4-dimethylaminomethyl-cyclohexyl)-ethyl]-amine] here?
**A.** 108.3 to 109.5 °C

**Q.** For `CN(C)CC#C[C@H]1CC[C@H](CN(C)c2ncc(Br)cn2)CC1` [Example 16, trans-(5-Bromo-pyrimidin-2-yl)-[4-(3-dimethylamino-prop-1-ynyl)-cyclohexylmethyl]-methyl-amine], which melting point is on record?
**A.** 71 to 72 °C

**Q.** With `CCCc1cnc(N(C)C[C@H]2CC[C@H](C#CCN(C)C)CC2)nc1` [Example 23.1, trans-[4-(3-Dimethylamino-prop-1-ynyl)-cyclohexylmethyl]-methyl-(5-propyl-pyrimidin-2-yl)-amine] as the compound, how does the melting point read?
**A.** 49 to 50 °C
